Data: PMC10458307, “New Scaffolds of Proteasome Inhibitors: Boosting Anticancer Potential by Exploiting the Synergy of In Silico and In Vitro Methodologies” (Pharmaceuticals, 2023)
Where “and” joins values, the source holds several entries; their conditions need not be identical. Equal values may be shown once.

How the values were obtained:
HT-29 cells = assay: Cell viability, MTT assay, HT-29; type: cell-based, human; conditions: 72 h; for IC50: Homo sapiens, HT-29, mean ± SD; for percentage of cell viability, MTT, HT-29: at 100 µM
Description: (§1) Whenever possible, additional concentrations were tested and IC50 values were determined.
(§2) Human leukemia Jurkat E6.1 T-cell line and K562-cell line were originally obtained from ATCC Collections (Manassas, VA, USA); human HT-29 and HCT116 colorectal carcinoma-cell lines were obtained from ECACC (Porton Down, Porton, UK). Cells were passaged for less than 6 months after and routinely tested for mycoplasma contamination using Mycoalert detection kit (Lonza, Basel, Switzerland). Jurkat, K562, and HT-29 cells were maintained in Roswell Park Memorial Institute (RPMI) 1640 with GlutaMAX™, supplemented with 1% antibiotic mixture (100 µg/mL streptomycin and 100 U/mL penicillin) and 10% heat-inactivated foetal bovine serum (FBS) (all from Gibco, Thermo Fisher Scientific, Paisley, UK). HCT116 cells were maintained in Dulbecco’s Modified Eagle Medium (DMEM) with GlutaMAX™, supplemented with 1% antibiotic mixture (100 µg/mL streptomycin and 100 U/mL penicillin) and 10% heat-inactivated FBS (all from Gibco, Thermo Fisher Scientific, Paisley, UK). Incubation was performed at 37 °C in a 5% CO2 atmosphere. Cells were routinely passaged every 2 or 3 days at 70–90% confluence; TrypLE Express (Gibco, Thermo Fisher Scientific, Paisley, UK) was used as dissociation agent for adherent cells. Trypan blue (Gibco, Thermo Fisher Scientific, Paisley, UK) was used to assess cell viability using the dye exclusion test.
(§3) To assess cell viability, the MTT assay was performed. Jurkat/K562/HT-29/HCT116 cell lines were seeded in triplicate (10,000 cells/well) in 96-well plates with 50 µL of complete medium and incubated at 37 °C, 5% CO2 for 24 h to allow the cells to adhere to the plate (in the case of adherent cells). […] Untreated cells seeded in triplicate were used as control. The blank was performed in triplicate with 100 µL of culture medium. The cells were incubated with the compounds, in triplicate, in 100 µL of total volume, at 37 °C, 5% CO2 for 72 h. […] In suspension cells (Jurkat), 25 µL of MTT were directly added to each well and, after 3 h 30 m of incubation, 100 µL of DMSO were added to solubilize the formazan crystals; in adherent cells (HT-29 and HCT116), the culture medium was removed, 25 µL of MTT were added to each well and, after 3 h 30 m of incubation, upon MTT removal, 100 µL of DMSO were added to solubilize the formazan crystals. After 15 min, the samples absorbance was measured at 570 nm and the percentage of cell viability was determined.

[1] = Cell viability, MTT assay, K562; type: cell-based, human; conditions: human, K562 leukemia cells, read-out: percentage of cell viability, MTT, K562; for viability at 72 h, 10 µM: at 10 µM; for viability at 72 h, 100 µM: at 100 µM
Description: as §1, §2, §3

[2] = biological target: T1, 20S proteasome in K562 cell lysates, C-L activity (Homo sapiens, UniProt P28072); assay: Proteasome inhibition assay in cell lysates, K562, C-L; conditions: for inhibition at 10 µM: read-out: percentage of proteasome inhibition, C-L, cell lysates K562, at 10 µM; for inhibition at 100 µM: read-out: percentage of proteasome inhibition, C-L, cell lysates K562, at 100 µM
T1 sequence (P28072 35-239 limits assumed): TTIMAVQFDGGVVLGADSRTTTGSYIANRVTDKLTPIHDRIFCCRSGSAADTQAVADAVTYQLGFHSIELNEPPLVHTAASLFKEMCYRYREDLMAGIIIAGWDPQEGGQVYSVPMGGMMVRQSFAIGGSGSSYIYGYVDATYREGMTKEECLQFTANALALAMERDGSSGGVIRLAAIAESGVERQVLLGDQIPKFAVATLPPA
T1 sequence (Q99436 44-277 partner): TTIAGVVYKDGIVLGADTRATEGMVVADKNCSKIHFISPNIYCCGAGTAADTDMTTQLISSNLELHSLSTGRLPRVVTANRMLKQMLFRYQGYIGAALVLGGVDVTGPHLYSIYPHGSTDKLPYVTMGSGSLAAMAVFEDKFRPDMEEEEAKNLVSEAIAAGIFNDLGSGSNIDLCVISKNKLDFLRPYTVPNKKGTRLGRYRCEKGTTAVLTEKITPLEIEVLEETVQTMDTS
Description: Cells were obtained from several cultured cell lines: Jurkat, K562, HT-29, and HCT116. Pellets with 20 × 10^6 cells were prepared and washed with cold sterile phosphate buffered saline (PBS), 1×, pH 7.4 (Gibco, Thermo Fisher Scientific, Paisley, UK). The preparation of the lysates from several cell lines was performed based on the methodology described by Gavioli et al. [67]. Cells were resuspended in buffer containing 50 mM TRIS-HCl pH 7.4 (Nzytech, Lisboa, Portugal), 5 mM MgCl2 (≥98% purity, Merck, Hamburg, Germany), 1 mM DTT (Merck, Hamburg, Germany), 2 mM ATP (≥98% purity, Enzo Life Sciences Inc., Farmingdale, NY, USA), and 250 mM saccharose (Merck, Hamburg, Germany). Glass beads (Merck, Hamburg, Germany) equivalent to the volume of the cell suspension were added, and the mixture was vortexed for 2 min at 4 °C. Beads and cell debris were removed using 5 min centrifugation at 1000× g and 4 °C, followed by 20 min of centrifugation at 10,000× g at 4 °C. Cell lysates containing proteasomes were resuspended in “activity buffer” [50 mM TRIS-HCl (pH 7.4), 5 mM MgCl2, 1 mM DTT, 2 mM ATP (≥98% purity, Enzo Life Sciences Inc., Farmingdale, NY, USA), and 500 µM EDTA (≥98% purity, Merck, Hamburg, Germany)]. Protein concentration was determined using the Pierce™ BCA protocol (Thermo Fisher Scientific, Rockford, IL, USA). […] DMSO was added in an equal volume as used for the untreated compounds as a way to assess/control its influence in the assay. Untreated cells were used as control. In each well of a 96-well plate, 25 µL of lysate were seeded in duplicate with 25 µL of the compound to test; in the control, 25 µL of activity buffer were added to the 25 µL of lysate. A blank (50 µL of activity buffer) was added to the wells in quadruplicate. Cell lysates, pre-treated or not with different concentrations of the test compounds, were incubated for 30 min at 37 °C. […] Stock solutions (10 mM) of each substrate were prepared in DMSO, diluted in activity buffer, and 50 µL were added to all wells (final concentration of each substrate = 100 µM), followed by an incubation at 37 °C for 60 min. Samples fluorescence was measured at an excitation wavelength of 360 nm and emission of 465 nm; the fluorescence measures were performed using the GloMax-Multi + Detection System (Promega Corp., Madison, WI, USA). Activity was evaluated in fluorescence units, after being converted to percentage of proteasome inhibition and, whenever possible, expressed as IC50 by plotting the inhibition data of each compound at different concentrations against the log of the concentration of the inhibitor, using the GraphPad Prism software version 7. At least eight different concentrations of the test compounds were used.

[3] = Cell viability, MTT assay, Jurkat; type: cell-based, human; conditions: human, Jurkat E6.1 T-cell leukemia cells, read-out: percentage of cell viability, MTT, Jurkat; for viability at 72 h, 10 µM: at 10 µM; for viability at 72 h, 100 µM: at 100 µM
Description: as §1, §2, §3

[4] = biological target: T2, isolated human 20S proteasome, C-L activity (Homo sapiens, UniProt P28072); assay: Proteasome inhibition assay in isolated human 20S proteasomes (Proteasome-Glo), C-L activity; type: biochemical; conditions: mean ± SD
T2 construct: human purified erythrocyte-derived 20S proteasome; purchased Enzo Life Sciences, Inc; host or cells: human erythrocytes (natural source)
Source text: In this assay, the peptide substrates are bound to aminoluciferin (Suc-LLVY-AML for CT-L activity, Z-nLPnLD-AML for C-L, and Z-LRR-AML for T-L), leading the cleavage of these substrates by the proteasome to the release of free aminoluciferin, which is the substrate of the buffer-contained luciferase.
To evaluate human purified erythrocyte-derived 20S proteasome inhibitory activity of the chosen compounds, the Proteasome-Glo™ 3-substrate system (Promega Corporation, Madison, WI, USA) was employed. The Proteasome-Glo™ reagents of the three proteolytic activities were prepared according to the manufacturer’s instructions, aliquoted, and stored at either −20 °C or 4 °C, avoiding freezing–thaw cycles. […] The purified 20S proteasome (Enzo Life Sciences, Inc., Farmingdale, NY, USA) was diluted in HEPES buffer 10 mM, pH 7.4, to a concentration experimentally adjusted to the signal/noise ratio obtained with each particular lot of Proteasome-Glo™ reagent, in order to have a good compromise between sensitivity and linear response. […] All assays were performed in white-walled multiwell plates (Thermo Scientific™ Sterilin™ White Microtiter™ plates, Thermo Fisher Scientific, Paisley, UK) in duplicates. The proteasome solution (25 μL) was added to each well first, then the diluted solutions of the assayed compounds (25 μL), and lastly the Proteasome-Glo™ Reagent (50 μL). […] Reagents were added to the plate well on ice, and the plate was then transferred to the plate luminometer (SpectraMax®, Molecular Devices, LLC, San Jose, CA, USA) set at 37 °C, gently mixed for 30 s, and the measurements were immediately started in kinetic mode, with data collected every 5 min for at least 60 min.
All compounds were dissolved in DMSO at a concentration of 10 mM and stored at −20 °C or 4 °C. Solutions of the test compounds were prepared at their adequate dilutions in 10 mM HEPES buffer pH 7.6 before each experiment.
To calculate the proteasome activity over time, the value of mean relative luminescence units (RLU) of blank wells at each respective time point was subtracted, and then the ratio between mean RLU of the sample and mean RLU of the positive control wells was calculated for each time point and expressed as percentage.

[5] = at 100 µM, Table 2 legend: bortezomib 10 µM
[6] = Table 2 legend: bortezomib 10 µM

Compound | IC50 (HT-29 cells) | percentage of proteasome inhibition, C-L, cell lysates K562 ([2]; at 10 µM) | percentage of proteasome inhibition, C-L, cell lysates K562 [2, 5] | inhibition at 10 µM [2] | inhibition at 100 µM [2, 6] | IC50 [4] | viability at 72 h, 10 µM [1] | viability at 72 h, 100 µM [1] | viability at 72 h, 10 µM [3] | viability at 72 h, 100 µM [3] | percentage of cell viability, MTT, HT-29 (HT-29 cells)
O=C1c2ccccc2C(=O)c2c(Nc3ccc(S(=O)(=O)N(CCO)CCO)cc3)ccc(O)c21 [Compound 2] | – | – | 63% | 0% | 63.2% | 2.42 µM | 86.3% | – | 80.2% | 77.2% | 65%
Cc1ccc(/C(=N/NS(=O)(=O)c2ccc([N+](=O)[O-])cc2)Sc2cc(Cl)c(C)cc2S(N)(=O)=O)cc1 [Compound 3] | – | – | 39% | 14.2% | 38.8% | 51.1 µM | 100% | 100% | 98.1% | 86% | –
C#CCCN1CCN(c2ccc(-n3c(=O)ccc4cnc5ccc(-c6ccc(N)nc6)cc5c43)cc2C(F)(F)F)CC1 [Compound 4, 9-(6-Aminopyridin-3-yl)-1-(4-(4-(but-3-yn-1-yl)piperazin-1-yl)-3-(trifluoromethyl)phenyl)benzo[h][1,6]naphthyridin-2(1H)-one] | 43 µM | – | – | – | – | 41.2 µM | – | – | 23.3% | 0% | 34%

Second part, led by results:

IC50 (HT-29 cells) | percentage of proteasome inhibition, C-L, cell lysates K562 ([2]; at 10 µM) | percentage of proteasome inhibition, C-L, cell lysates K562 [2, 5] | inhibition at 10 µM [2] | inhibition at 100 µM [2, 6] | IC50 [4] | Compound | viability at 72 h, 10 µM [1] | viability at 72 h, 100 µM [1] | viability at 72 h, 10 µM [3] | viability at 72 h, 100 µM [3] | percentage of cell viability, MTT, HT-29 (HT-29 cells)
0.00973 µM | 94.99% | 97.19% and 97% | – | – | – | CC(C)C[C@H](NC(=O)[C@H](Cc1ccccc1)NC(=O)c1cnccn1)B(O)O [Bortezomib, bortezomib, reference compound] | 0% | 0% | 0% | 0% | –
61.7 µM | – | 28% | 0% | 28.2% | – | Cc1ccc2ccccc2c1CSc1ncnc2c1ncn2C1OC(CO)C(O)C1O (centres unmarked) [Compound 1] | 93.1% | 18.2% | 98.7% | 21% | 23%
70.5 µM | – | – | – | – | – | CC(C)c1nc(CN(C)C(=O)N[C@@H](CCN2CCOCC2)C(=O)N[C@H](CC[C@H](Cc2ccccc2)NC(=O)OCc2cncs2)Cc2ccccc2)cs1 [Compound 5, cobicistat, reference compound] | – | – | 93.3% | 0% | 25%
